The text below walks through data of ChEMBL document CHEMBL5465560, “Selectivity Literature for EUbOPEN Chemogenomic Library” (2024).

Assay [1] relates to Serine/threonine-protein kinase B-raf (Homo sapiens), P15056 [V600E]. The settings on record: at 10 µM.
The target in assay [2] is Calcium/calmodulin-dependent protein kinase type II subunit alpha (Homo sapiens, UniProt Q9UQM7). The assay can be described thus: Selectivity interaction (Ambit KINOMEscan and KiNATiv profiling in Jurkat cells) EUB0000090b CAMK2A. Type of assay: cell-based. The settings on record: at 1 µM.
Calcium/calmodulin-dependent protein kinase type II subunit alpha, sequence (Q9UQM7 whole entry): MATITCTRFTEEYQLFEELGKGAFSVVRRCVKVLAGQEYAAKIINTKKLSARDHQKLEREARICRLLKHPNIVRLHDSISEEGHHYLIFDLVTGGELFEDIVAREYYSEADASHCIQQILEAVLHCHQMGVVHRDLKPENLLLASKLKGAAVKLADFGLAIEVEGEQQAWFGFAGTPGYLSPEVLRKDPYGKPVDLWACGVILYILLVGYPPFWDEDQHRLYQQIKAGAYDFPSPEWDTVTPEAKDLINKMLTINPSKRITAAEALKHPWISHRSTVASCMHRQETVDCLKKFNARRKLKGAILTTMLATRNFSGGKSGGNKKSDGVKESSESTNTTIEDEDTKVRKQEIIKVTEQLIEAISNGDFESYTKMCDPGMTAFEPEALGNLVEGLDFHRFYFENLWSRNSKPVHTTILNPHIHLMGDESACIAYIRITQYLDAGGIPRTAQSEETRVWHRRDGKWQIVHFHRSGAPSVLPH
Assay [3] concerns the target DNA-dependent protein kinase catalytic subunit (Homo sapiens) (UniProt P78527). In words: Selectivity interaction (Kinase panel (Z-LYTE Assay)) EUB0001632a PRKDC. The settings on record: at 10 µM.
For assay [4], the target named is T1, Histone-arginine methyltransferase CARM1 (Homo sapiens) (UniProt Q86X55).
T1 sequence (whole entry): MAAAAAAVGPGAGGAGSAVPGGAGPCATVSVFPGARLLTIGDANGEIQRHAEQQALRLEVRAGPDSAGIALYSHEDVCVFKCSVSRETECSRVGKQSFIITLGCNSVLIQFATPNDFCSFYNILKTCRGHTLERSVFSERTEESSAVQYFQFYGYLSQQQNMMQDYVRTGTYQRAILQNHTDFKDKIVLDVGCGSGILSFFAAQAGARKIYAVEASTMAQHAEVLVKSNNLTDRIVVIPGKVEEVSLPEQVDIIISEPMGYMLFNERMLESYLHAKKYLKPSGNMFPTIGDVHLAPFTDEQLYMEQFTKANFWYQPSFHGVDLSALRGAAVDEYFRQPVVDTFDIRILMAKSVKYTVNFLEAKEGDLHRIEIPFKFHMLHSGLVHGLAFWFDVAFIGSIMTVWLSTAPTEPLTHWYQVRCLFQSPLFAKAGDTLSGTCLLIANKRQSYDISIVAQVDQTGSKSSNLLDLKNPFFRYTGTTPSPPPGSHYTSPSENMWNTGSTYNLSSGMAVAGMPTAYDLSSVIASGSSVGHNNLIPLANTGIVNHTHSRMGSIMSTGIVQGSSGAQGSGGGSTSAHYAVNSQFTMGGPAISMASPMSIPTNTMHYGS
The note with it: at 10 µM.

Assay [5] deals with T2, Tyrosine-protein kinase JAK3 (Homo sapiens) (UniProt P52333).
T2 sequence (whole entry): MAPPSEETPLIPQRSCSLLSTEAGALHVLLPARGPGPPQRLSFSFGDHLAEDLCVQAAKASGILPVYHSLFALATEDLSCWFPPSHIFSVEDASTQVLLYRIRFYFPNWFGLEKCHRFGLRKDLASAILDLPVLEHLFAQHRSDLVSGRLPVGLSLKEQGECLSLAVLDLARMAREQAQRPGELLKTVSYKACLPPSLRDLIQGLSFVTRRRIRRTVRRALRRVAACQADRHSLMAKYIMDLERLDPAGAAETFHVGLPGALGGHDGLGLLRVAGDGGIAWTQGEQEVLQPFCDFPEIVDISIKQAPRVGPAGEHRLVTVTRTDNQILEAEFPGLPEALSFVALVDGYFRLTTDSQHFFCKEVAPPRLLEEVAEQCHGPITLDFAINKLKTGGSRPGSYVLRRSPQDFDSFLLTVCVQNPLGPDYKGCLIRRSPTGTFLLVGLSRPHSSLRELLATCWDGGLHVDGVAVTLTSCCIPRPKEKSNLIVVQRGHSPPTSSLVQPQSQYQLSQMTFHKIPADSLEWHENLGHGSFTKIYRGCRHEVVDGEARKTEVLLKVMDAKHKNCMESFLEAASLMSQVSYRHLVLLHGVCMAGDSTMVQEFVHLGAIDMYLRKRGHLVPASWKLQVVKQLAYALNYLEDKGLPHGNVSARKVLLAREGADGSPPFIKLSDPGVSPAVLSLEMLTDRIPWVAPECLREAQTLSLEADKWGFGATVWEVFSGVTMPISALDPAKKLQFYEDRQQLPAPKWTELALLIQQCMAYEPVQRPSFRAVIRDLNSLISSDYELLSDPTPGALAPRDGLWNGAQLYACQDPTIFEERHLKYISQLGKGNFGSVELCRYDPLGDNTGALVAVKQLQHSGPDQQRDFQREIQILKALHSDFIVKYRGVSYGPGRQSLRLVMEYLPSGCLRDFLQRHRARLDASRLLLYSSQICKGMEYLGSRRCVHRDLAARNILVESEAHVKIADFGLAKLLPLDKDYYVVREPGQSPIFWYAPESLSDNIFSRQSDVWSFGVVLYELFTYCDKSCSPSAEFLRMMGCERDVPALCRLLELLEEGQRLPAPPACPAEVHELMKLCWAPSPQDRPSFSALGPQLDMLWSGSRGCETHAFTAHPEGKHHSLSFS
In words: Selectivity interaction (SelectScreen profiling (Invitrogen)) EUB0000607a JAK3. The settings on record: at 2 µM.

In assay [6] the target is Tyrosine-protein kinase BTK (Homo sapiens, UniProt Q06187). The assay can be described thus: Selectivity interaction (KinomeScan (DiscoverX)) EUB0000607a BTK. The settings on record: at 10 µM.
Tyrosine-protein kinase BTK, sequence (Q06187 whole entry): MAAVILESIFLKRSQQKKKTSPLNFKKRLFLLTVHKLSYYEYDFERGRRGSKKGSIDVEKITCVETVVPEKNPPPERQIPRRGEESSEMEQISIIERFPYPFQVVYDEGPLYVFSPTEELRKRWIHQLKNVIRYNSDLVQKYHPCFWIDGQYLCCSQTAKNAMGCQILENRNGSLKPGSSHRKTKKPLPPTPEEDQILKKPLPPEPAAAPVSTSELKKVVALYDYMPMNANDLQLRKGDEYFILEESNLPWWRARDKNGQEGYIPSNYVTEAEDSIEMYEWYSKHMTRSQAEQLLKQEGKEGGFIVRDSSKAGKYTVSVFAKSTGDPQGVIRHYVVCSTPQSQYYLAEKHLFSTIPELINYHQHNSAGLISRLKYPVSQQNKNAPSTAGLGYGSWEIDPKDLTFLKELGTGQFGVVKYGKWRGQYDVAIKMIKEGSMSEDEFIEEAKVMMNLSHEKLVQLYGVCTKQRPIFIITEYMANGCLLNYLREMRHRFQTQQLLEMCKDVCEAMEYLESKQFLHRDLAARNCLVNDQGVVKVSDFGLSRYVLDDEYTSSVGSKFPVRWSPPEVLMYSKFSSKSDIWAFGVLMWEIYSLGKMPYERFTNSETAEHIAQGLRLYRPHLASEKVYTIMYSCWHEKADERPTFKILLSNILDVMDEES
The target in assay [7] is Cyclin-dependent kinase 16 (Homo sapiens) (UniProt Q00536). The assay can be described thus: Selectivity interaction (ActivX KiNativ screen (kinase selectivity in THP-1 cell lysates)) EUB0000639a CDK16. It counts as subcellular. The note with it: lysate, at 1 µM.
Cyclin-dependent kinase 16 (Homo sapiens), sequence (Q00536 whole entry): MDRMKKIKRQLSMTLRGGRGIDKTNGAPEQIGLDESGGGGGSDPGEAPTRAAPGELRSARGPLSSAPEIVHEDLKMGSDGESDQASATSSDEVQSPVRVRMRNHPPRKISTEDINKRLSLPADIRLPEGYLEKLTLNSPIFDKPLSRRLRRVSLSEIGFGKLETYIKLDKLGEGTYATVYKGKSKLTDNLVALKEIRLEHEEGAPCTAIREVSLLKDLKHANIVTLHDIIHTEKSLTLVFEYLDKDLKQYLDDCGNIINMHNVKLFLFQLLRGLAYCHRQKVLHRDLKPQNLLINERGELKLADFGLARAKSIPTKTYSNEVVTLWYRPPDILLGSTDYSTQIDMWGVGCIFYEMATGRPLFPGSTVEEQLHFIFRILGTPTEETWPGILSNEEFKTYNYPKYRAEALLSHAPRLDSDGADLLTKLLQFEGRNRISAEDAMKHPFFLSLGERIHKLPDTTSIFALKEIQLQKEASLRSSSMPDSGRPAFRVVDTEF
Assay [8] concerns the target Serine/threonine-protein kinase 16 (Homo sapiens, UniProt O75716). The assay can be described thus: Selectivity interaction (Kinase panel (Invitrogen)) EUB0000639a STK16. The settings on record: at 200 nM.
In assay [9] the target is Tyrosine-protein kinase ABL2 (Homo sapiens, UniProt P42684). The assay can be described thus: Selectivity interaction (ActivX KiNativ screen (ex vivo kinase selectivity in human PBMCs)) EUB0001619a ABL2. Type of assay: cell-based. The settings on record: PBMC, at 1 µM.
Tyrosine-protein kinase ABL2, sequence (P42684 whole entry): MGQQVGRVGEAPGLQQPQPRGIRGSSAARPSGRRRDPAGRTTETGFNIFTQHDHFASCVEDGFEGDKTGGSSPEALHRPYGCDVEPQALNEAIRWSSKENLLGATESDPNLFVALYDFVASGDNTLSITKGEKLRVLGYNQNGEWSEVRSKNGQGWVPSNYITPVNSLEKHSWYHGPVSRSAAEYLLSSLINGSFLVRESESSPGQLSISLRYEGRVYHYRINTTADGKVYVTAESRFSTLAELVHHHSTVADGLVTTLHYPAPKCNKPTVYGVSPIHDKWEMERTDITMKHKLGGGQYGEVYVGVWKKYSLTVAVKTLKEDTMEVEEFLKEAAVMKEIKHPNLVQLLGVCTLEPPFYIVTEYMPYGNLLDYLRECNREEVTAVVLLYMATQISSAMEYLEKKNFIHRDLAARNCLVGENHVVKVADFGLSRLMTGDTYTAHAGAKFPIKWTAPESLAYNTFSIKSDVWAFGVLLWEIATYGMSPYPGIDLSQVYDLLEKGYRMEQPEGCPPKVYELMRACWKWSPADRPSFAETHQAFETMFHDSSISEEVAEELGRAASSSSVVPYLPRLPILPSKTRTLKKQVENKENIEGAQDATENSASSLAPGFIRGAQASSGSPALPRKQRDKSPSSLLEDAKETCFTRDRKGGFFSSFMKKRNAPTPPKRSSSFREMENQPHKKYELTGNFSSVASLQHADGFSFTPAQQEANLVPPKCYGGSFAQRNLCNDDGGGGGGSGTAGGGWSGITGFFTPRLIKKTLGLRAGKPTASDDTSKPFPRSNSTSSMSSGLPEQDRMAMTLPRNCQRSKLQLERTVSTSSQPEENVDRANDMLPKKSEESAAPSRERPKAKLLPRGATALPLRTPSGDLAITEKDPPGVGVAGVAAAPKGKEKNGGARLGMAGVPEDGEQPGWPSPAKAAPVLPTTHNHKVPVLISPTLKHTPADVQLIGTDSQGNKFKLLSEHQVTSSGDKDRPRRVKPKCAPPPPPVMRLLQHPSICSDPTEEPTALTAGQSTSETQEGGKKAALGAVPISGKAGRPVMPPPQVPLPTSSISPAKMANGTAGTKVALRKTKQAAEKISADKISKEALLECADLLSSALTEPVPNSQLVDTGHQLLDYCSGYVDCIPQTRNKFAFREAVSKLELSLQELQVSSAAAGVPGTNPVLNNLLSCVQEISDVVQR
The target in assay [10] is High affinity nerve growth factor receptor (Homo sapiens, UniProt P04629). In words: Selectivity interaction (KinomeScan (DiscoverX)) EUB0000618a NTRK1. The settings on record: at 10 µM.
High affinity nerve growth factor receptor, sequence (P04629 33-796 limits assumed): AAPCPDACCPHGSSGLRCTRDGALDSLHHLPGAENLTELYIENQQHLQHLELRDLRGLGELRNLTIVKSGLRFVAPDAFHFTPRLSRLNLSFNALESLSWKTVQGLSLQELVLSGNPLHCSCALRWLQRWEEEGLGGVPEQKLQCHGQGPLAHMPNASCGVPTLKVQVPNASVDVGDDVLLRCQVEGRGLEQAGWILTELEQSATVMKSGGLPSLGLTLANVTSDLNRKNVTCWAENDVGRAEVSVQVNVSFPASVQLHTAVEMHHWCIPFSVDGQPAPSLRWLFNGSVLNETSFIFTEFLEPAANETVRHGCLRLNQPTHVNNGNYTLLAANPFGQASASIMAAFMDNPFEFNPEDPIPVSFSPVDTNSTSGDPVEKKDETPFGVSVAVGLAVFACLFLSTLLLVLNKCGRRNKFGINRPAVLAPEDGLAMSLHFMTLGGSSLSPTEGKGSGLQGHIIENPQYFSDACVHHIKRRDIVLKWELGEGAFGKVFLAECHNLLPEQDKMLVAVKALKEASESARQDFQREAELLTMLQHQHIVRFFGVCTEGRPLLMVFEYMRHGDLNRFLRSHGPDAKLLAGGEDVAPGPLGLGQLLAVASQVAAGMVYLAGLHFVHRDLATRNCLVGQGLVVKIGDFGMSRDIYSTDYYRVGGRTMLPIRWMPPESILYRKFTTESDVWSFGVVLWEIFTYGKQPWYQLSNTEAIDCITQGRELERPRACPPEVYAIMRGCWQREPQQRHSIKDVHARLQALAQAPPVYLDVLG

Serine/threonine-protein kinase B-raf (Homo sapiens), P15056 [V600E], sequence (P15056 whole entry V600E): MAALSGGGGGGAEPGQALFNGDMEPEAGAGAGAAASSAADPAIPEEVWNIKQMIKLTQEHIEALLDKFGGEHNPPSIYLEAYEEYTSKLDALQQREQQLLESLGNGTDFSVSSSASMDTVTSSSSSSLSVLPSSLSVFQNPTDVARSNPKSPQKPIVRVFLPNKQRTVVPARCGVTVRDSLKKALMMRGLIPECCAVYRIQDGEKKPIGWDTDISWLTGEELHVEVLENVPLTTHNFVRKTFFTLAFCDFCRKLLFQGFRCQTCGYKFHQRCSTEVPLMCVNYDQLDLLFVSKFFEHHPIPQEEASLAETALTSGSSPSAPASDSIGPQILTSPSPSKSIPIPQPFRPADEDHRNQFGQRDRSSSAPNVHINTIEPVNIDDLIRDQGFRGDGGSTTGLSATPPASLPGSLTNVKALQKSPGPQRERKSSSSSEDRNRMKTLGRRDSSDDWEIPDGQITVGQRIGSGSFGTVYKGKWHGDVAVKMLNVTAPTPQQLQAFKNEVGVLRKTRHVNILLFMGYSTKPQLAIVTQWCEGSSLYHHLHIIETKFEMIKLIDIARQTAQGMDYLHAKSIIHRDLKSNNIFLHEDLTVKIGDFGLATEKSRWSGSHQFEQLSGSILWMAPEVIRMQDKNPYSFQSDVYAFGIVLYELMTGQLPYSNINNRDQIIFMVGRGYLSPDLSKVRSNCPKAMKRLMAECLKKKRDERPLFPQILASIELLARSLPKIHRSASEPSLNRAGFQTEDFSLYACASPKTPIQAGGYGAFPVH
Serine/threonine-protein kinase 16, sequence (O75716 whole entry): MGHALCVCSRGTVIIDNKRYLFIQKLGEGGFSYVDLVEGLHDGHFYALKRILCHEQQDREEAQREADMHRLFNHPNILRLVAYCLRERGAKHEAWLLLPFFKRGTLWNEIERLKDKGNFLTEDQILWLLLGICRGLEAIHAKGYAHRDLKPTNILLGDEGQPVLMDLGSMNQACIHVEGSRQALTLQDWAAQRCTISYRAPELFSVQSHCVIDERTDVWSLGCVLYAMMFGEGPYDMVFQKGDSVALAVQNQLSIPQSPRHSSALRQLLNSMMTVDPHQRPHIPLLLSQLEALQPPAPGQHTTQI

The compound `Cc1cc([C@@H](C)Nc2ccccc2C(=O)O)c2nc(N3CCOCC3)cc(=O)n2c1` [AZD-6482] returned a % of control in assay [1] of 92%. Take `CN(C)C/C=C/C(=O)Nc1ccc(C(=O)N2CCCC(Nc3ncc(Cl)c(-c4c[nH]c5ccccc45)n3)C2)cc1` (stereo not given): the % of control in assay [2] was found to be 99%. Regarding `Cn1cc(-n2cnc3c(NCc4nc5cc(Cl)c(Cl)cc5[nH]4)nc(N4CCOCC4)nc32)cn1`, the % of control in assay [3] worked out at 11.8%. `CNCCN1CCC(c2cc(CN(C)C(=O)c3cccc(Oc4ccccc4)c3)ccn2)CC1`: the % activity in assay [4] was found to be 1%. As to `CNC(=O)Nc1ccc(-c2nc(N3CC4CCC(C3)O4)c3cnn(C4CCC5(CC4)OCCO5)c3n2)cc1`, in assay [5], the % of inhibition came to 0%. In assay [6], this compound displayed a % of control of 90%.

For `CC[C@@H]1[C@H](F)C(=O)N[C@@H]1COc1nccc2cc(C(N)=O)c(OC)cc12` [ZIMLOVISERTIB], the % of inhibition stood at 7.7% in assay [7] and 14.2% in [8]. Take `N#Cc1cccc(-c2c[nH]c3ncnc(N4CCOCC4)c23)c1`: the % of inhibition in [9] is -53%.

`O[C@H]1CC[C@H](Nc2ncc3nc(Nc4c(F)cc(F)cc4F)n([C@H]4CCOC4)c3n2)CC1`: in assay [10], the % of control was determined as 75%.
